ChEMBL document CHEMBL1201862, “PubChem BioAssay data set” (2004)
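Interpolation was linear, between the two tested concentrations surrounding the appropriate level; five concentrations were tested over 48 hours in 96-well plates. GI50 = concentration required for 50% inhibition of growth.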 Active and inactive are the calls of the source. Rule as the data show it: active = GI50 up to about 1.1 µM and inactive = higher.

Columns and labels:
Experiment in all cases: growth of human tumour cells (NCI), 48 h
CAKI-1 = tested on: CAKI-1
HCT-116 = tested on: HCT-116
TK-10 = tested on: TK-10
UACC-62 = tested on: UACC-62
SK-MEL-5 = tested on: SK-MEL-5
U-251 = tested on: U-251
SK-OV-3 = tested on: SK-OV-3
A549 = tested on: A549
K562 = tested on: K562
RXF 393 = tested on: RXF 393
NCI-H226 = tested on: NCI-H226
PC-3 = tested on: PC-3
Malme-3M = tested on: Malme-3M
NCI/ADR-RES = tested on: NCI/ADR-RES
HCC 2998 = tested on: HCC 2998
DU-145 = tested on: DU-145
SK-MEL-28 = tested on: SK-MEL-28
SW-620 = tested on: SW-620
MDA-MB-231 = tested on: MDA-MB-231
BT-549 = tested on: BT-549
NCI-H23 = tested on: NCI-H23
MDA-MB-435 = tested on: MDA-MB-435
SNB-75 = tested on: SNB-75
OVCAR-5 = tested on: OVCAR-5
SN12C = tested on: SN12C
SNB-19 = tested on: SNB-19
SF-268 = tested on: SF-268
NCI-H522 = tested on: NCI-H522
OVCAR-3 = tested on: OVCAR-3
NCI-H460 = tested on: NCI-H460
HT-29 = tested on: HT-29
A498 = tested on: A498
KM12 = tested on: KM12
IGROV-1 = tested on: IGROV-1
RPMI-8226 = tested on: RPMI-8226
MCF7 = tested on: MCF7
MDA-N = tested on: MDA-N
COLO 205 = tested on: COLO 205
OVCAR-8 = tested on: OVCAR-8
EKVX = tested on: EKVX
M14 = tested on: M14
SF-295 = tested on: SF-295
UO-31 = tested on: UO-31
HCT-15 = tested on: HCT-15
MOLT-4 = tested on: MOLT-4
Hs-578T = tested on: Hs-578T
HOP-62 = tested on: HOP-62
SF-539 = tested on: SF-539
LOX IMVI = tested on: LOX IMVI
SK-MEL-2 = tested on: SK-MEL-2
OVCAR-4 = tested on: OVCAR-4
HOP-92 = tested on: HOP-92
786-0 = tested on: 786-0
HL-60 = tested on: HL-60
ACHN = tested on: ACHN
CCRF-CEM = tested on: CCRF-CEM
UACC-257 = tested on: UACC-257
SR = tested on: SR

SMILES: CC[N+](CC)(CCNCC(N)=O)CC(N)=O
- GI50 (CAKI-1): > 10 µM (inactive)
- GI50 (HCT-116): > 10 µM (inactive)
- GI50 (TK-10): > 10 µM (inactive)
- GI50 (UACC-62): > 10 µM (inactive)
- GI50 (SK-MEL-5): > 10 µM (inactive)
- GI50 (U-251): > 10 µM (inactive)
- GI50 (SK-OV-3): > 10 µM (inactive)
- GI50 (A549): > 10 µM (inactive)
- GI50 (K562): > 10 µM (inactive)
- GI50 (RXF 393): > 10 µM (inactive)
- GI50 (NCI-H226): > 10 µM (inactive)
- GI50 (PC-3): > 10 µM (inactive)
- GI50 (Malme-3M): > 10 µM (inactive)
- GI50 (NCI/ADR-RES): > 10 µM (inactive)
- GI50 (HCC 2998): > 10 µM (inactive)
- GI50 (DU-145): > 10 µM (inactive)
- GI50 (SK-MEL-28): > 10 µM (inactive)
- GI50 (SW-620): > 10 µM (inactive)
- GI50 (MDA-MB-231): > 10 µM (inactive)
- GI50 (BT-549): > 10 µM (inactive)
- GI50 (NCI-H23): > 10 µM (inactive)
- GI50 (MDA-MB-435): > 10 µM (inactive)
- GI50 (SNB-75): > 10 µM (inactive)
- GI50 (OVCAR-5): > 10 µM (inactive)
- GI50 (SN12C): > 10 µM (inactive)
- GI50 (SNB-19): > 10 µM (inactive)
- GI50 (SF-268): > 10 µM (inactive)
- GI50 (NCI-H522): > 10 µM (inactive)
- GI50 (OVCAR-3): > 10 µM (inactive)
- GI50 (NCI-H460): > 10 µM (inactive)
- GI50 (HT-29): > 10 µM (inactive)
- GI50 (A498): > 10 µM (inactive)
- GI50 (KM12): > 10 µM (inactive)
- GI50 (IGROV-1): > 10 µM (inactive)
- GI50 (RPMI-8226): > 10 µM (inactive)
- GI50 (MCF7): > 10 µM (inactive)
- GI50 (MDA-N): > 10 µM (inactive)
- GI50 (COLO 205): > 10 µM (inactive)
- GI50 (OVCAR-8): > 10 µM (inactive)
- GI50 (EKVX): > 10 µM (inactive)
- GI50 (M14): > 10 µM (inactive)
- GI50 (SF-295): > 10 µM (inactive)
- GI50 (UO-31): > 10 µM (inactive)
- GI50 (HCT-15): > 10 µM
- GI50 (MOLT-4): > 10 µM (inactive)
- GI50 (Hs-578T): > 10 µM (inactive)
- GI50 (HOP-62): > 10 µM (inactive)
- GI50 (SF-539): > 10 µM (inactive)
- GI50 (LOX IMVI): > 10 µM (inactive)
- GI50 (SK-MEL-2): > 10 µM (inactive)
- GI50 (OVCAR-4): > 10 µM (inactive)
- GI50 (HOP-92): > 10 µM (inactive)
- GI50 (786-0): > 10 µM (inactive)
- GI50 (HL-60): > 10 µM (inactive)
- GI50 (ACHN): > 10 µM (inactive)
- GI50 (CCRF-CEM): > 10 µM (inactive)
- GI50 (UACC-257): > 10 µM (inactive)

SMILES: Cc1ccc(C(CC(=O)C(C)(C)CN2CCCCC2)SCCS(=O)(=O)O)cc1 (stereo unspecified)
- GI50 (CAKI-1): 22.3 µM (inactive)
- GI50 (HCT-116): 22.3 µM (inactive)
- GI50 (TK-10): 25.9 µM (inactive)
- GI50 (UACC-62): 21.7 µM (inactive)
- GI50 (SK-MEL-5): 23.2 µM (inactive)
- GI50 (U-251): 29.4 µM (inactive)
- GI50 (SK-OV-3): 49.3 µM (inactive)
- GI50 (A549): 36.1 µM (inactive)
- GI50 (K562): 11.6 µM (inactive)
- GI50 (RXF 393): 11.8 µM (inactive)
- GI50 (NCI-H226): 30.7 µM (inactive)
- GI50 (PC-3): 34.4 µM (inactive)
- GI50 (Malme-3M): 26.4 µM (inactive)
- GI50 (NCI/ADR-RES): 28.8 µM (inactive)
- GI50 (HCC 2998): 39.4 µM (inactive)
- GI50 (SR): 12.2 µM (inactive)
- GI50 (DU-145): 41.9 µM (inactive)
- GI50 (SW-620): 25.8 µM (inactive)
- GI50 (MDA-MB-231): 34.7 µM (inactive)
- GI50 (BT-549): 74.6 µM (inactive)
- GI50 (NCI-H23): 27.9 µM (inactive)
- GI50 (MDA-MB-435): 23.7 µM (inactive)
- GI50 (SNB-75): 31.3 µM (inactive)
- GI50 (OVCAR-5): 20.9 µM (inactive)
- GI50 (SN12C): 25.3 µM (inactive)
- GI50 (SNB-19): 57.4 µM (inactive)
- GI50 (SF-268): 37.8 µM (inactive)
- GI50 (NCI-H522): 25.8 µM (inactive)
- GI50 (OVCAR-3): 15.5 µM (inactive)
- GI50 (NCI-H460): 42.3 µM (inactive)
- GI50 (HT-29): 24 µM (inactive)
- GI50 (A498): 19.7 µM (inactive)
- GI50 (KM12): 31.1 µM (inactive)
- GI50 (IGROV-1): 33.9 µM (inactive)
- GI50 (RPMI-8226): 22.1 µM (inactive)
- GI50 (MCF7): 21.6 µM (inactive)
- GI50 (MDA-N): 31 µM (inactive)
- GI50 (COLO 205): 18.8 µM (inactive)
- GI50 (OVCAR-8): 21.9 µM (inactive)
- GI50 (EKVX): 21.9 µM (inactive)
- GI50 (M14): 23.8 µM (inactive)
- GI50 (SF-295): 15 µM (inactive)
- GI50 (UO-31): 25.2 µM (inactive)
- GI50 (HCT-15): 22.6 µM
- GI50 (MOLT-4): 20.8 µM (inactive)
- GI50 (Hs-578T): 30.7 µM (inactive)
- GI50 (HOP-62): 36.6 µM (inactive)
- GI50 (SF-539): 23.2 µM (inactive)
- GI50 (SK-MEL-2): 12.5 µM (inactive)
- GI50 (OVCAR-4): 31.6 µM (inactive)
- GI50 (HOP-92): 17.1 µM (inactive)
- GI50 (786-0): 26.2 µM (inactive)
- GI50 (ACHN): 25.2 µM (inactive)
- GI50 (CCRF-CEM): 19.3 µM (inactive)
